Data set [1] addresses T1, Protein cereblon/Kinesin-like protein KIF11 (Homo sapiens, UniProt P52732+Q96SW2). The data set can be described thus: PROTAC activity at CRBN/KSP in human HCT-116 cells assessed as induction of KSP degradation by measuring maximal efficacy incubated for 48 hrs by Western blot analysis relative to control. It counts as cell-based. (A western blot detects proteins with antibodies after separation by electrophoresis.)

The target of data set [2] is T1, Protein cereblon/Kinesin-like protein KIF11. The data set can be described thus: PROTAC activity at CRBN/KSP in human HCT-116 cells assessed as reduction of KSP protein level at 200 nM by Western blot analysis. The format is cell-based. The following applies: time 6-48 hrs.
Data set [3] has as its system MCF7. Description: Antiproliferative activity against human MCF7 cells assessed as inhibition of cell proliferation measured after 72 hrs by CCK8 assay. The following applies: MCF7, 72 h. It counts as functional, cell-based.
Data set [4] concerns HCT-116. The data set can be described thus: Induction of apoptosis in human HCT-116 cells assessed as viable cells at 100 nM incubated for 48 hrs by Annexin V-FITC/PI staining based flow cytometry analysis (reference value: 94.31 %). The following applies: read-out: Activity. The format is functional. (In flow cytometry, cells or beads pass a laser one at a time.)
The subject of data set [5] is HCT-116. The data set can be described thus: Induction of apoptosis in human HCT-116 cells assessed as late apoptotic cells at 100 nM incubated for 48 hrs by Annexin V-FITC/PI staining based flow cytometry analysis (reference value: 1.36 %). It counts as functional.
The subject of data set [6] is HCT-116. The data set can be described thus: Induction of apoptosis in human HCT-116 cells assessed as late apoptotic cells at 10 nM incubated for 48 hrs by Annexin V-FITC/PI staining based flow cytometry analysis (reference value: 1.36 %). It counts as functional.
The subject of data set [7] is HCT-116. Description: Induction of cell cycle arrest in human HCT-116 cells assessed as accumulation of cells at G1 phase at 100 nM incubated for 24 hrs by RNase A/propidium iodide staining based flow cytometric analysis (reference value: 93.11 %). It counts as functional.
For data set [8], the system named is HCT-116. Description: Antitumor activity against human HCT-116 cells xenografted in female BALB/c nu/nu mouse assessed as reduction in tumor volume at 7.5 mg/kg, ip measured every 2 days for 14 days relative to control. It counts as functional. Also noted: scale not given: the % may be the effect or the level left. The following applies: time 14 day.
The nature of data set [9]: Toxicity in female BALB/c nu/nu nude mouse xenografted with human HCT-116 cells assessed as body weight loss at 7.5 to 15 mg/kg, ip measured every 2 days for 14 days. The format is organism-based. The following applies: in vivo, 336 h, dose 7.5-15 mg/kg, time 14 day. (In xenograft studies the graft and the host belong to different species.)

The structures appear in SMILES notation.

T1 sequence (P52732 whole entry, looked up): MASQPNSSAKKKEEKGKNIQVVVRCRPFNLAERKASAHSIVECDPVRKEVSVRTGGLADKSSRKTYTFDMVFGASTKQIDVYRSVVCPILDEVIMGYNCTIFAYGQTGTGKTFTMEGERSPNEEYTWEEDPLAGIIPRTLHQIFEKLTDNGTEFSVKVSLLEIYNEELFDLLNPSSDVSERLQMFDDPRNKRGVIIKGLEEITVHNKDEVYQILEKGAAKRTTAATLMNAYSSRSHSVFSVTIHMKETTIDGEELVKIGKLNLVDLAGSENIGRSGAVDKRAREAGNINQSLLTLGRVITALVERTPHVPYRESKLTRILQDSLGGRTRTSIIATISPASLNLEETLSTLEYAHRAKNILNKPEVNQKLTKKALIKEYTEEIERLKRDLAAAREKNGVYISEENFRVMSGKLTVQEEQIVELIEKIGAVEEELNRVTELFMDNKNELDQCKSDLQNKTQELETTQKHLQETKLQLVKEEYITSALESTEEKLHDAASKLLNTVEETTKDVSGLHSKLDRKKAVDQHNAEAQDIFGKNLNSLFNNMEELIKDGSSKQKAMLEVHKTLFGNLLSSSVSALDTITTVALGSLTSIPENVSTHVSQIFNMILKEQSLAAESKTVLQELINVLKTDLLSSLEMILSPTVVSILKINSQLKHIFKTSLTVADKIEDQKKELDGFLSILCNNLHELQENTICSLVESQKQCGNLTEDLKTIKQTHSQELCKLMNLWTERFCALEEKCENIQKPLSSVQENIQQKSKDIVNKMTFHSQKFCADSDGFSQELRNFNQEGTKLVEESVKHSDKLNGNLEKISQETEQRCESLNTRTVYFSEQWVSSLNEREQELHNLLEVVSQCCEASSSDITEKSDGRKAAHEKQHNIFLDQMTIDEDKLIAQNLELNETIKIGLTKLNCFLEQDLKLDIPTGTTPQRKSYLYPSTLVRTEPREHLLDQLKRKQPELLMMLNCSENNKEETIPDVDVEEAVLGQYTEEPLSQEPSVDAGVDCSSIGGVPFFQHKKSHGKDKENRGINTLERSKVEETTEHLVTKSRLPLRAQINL
T1 sequence (Q96SW2 whole entry, looked up): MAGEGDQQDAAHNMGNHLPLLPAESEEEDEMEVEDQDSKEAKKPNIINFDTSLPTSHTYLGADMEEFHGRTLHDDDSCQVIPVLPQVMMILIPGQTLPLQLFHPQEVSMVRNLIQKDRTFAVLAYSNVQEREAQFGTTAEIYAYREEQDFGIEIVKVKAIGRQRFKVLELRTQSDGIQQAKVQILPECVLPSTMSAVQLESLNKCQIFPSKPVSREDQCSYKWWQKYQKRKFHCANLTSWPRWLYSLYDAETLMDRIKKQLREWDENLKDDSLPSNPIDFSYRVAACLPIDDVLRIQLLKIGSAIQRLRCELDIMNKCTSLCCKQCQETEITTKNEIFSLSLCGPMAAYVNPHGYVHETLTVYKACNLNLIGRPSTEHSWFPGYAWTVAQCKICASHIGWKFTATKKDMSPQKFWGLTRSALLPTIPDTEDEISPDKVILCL

As usually defined, the Emax is the greatest response seen or fitted, relative to the assay's reference. By IC50 is commonly meant the concentration needed to halve the response being measured. In the case of `COc1ccc(C2(SC[C@H](N)C(=O)NCCCCCCCCNC(=O)COc3cccc4c3C(=O)N(C3CCC(=O)NC3=O)C4=O)c3ccccc3C=Cc3ccccc32)cc1` (some centres undefined), in data set [1], the Emax stood at 90%. The Activity entry in [2] was “Time-dependent-effect; Considerable Ksp Degradation Noticed Within 6 Hrs”; in data set [5], 25.55%; in data set [6] it was 14.96%; in [7], 9.98%; in data set [8], 91%; in data set [9], “Non-toxic”. In [3], the half-inhibitory concentration (IC50) is 424 nM. The viability at 0.1 µM in data set [4] came out at 29.1%.

The values are drawn from ChEMBL document CHEMBL6096664, “Discovery of novel KSP-targeting PROTACs with potent antitumor effects in vitro and in vivo” (Eur J Med Chem, 2025).
